In patent EP2303911B1, “A SYNTHETIC PEPTIDE CONSISTING OF BONE FORMING PEPTIDE 2(BFP 2) FOR STIMULATING OSTEOBLAST DIFFERENTIATION, AND PHARMACEUTICAL COMPOSITION COMPRISING THE SYNTHETIC PEPTIDE” (Industry Foundation Of Chonnam National University, priority 2008, dated 2012):
No end group written: not given here.

Tested on: cells
Experiment: MTT assay for cytotoxicity
Type: cell-based
Details: within a range of used concentrations, FIG. 3

In the case of “VEHDKEFFHPRYHHR [BFP 2, Val-Glu-His-Asp-Lys-Glu-Phe-Phe-His-Pro-Arg-Tyr-His-His-Arg]”, the cytotoxicity is reported as “not toxic to cells”.
